{"source": "PubChem BioAssay (NCI)", "note": "“And” between values parts separate entries of the source, which are not always exact repeats. Equal values may be shown once.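 Test compounds were applied to cells in 96-well plates for 48 hours at 5 doses. The concentration for 50% growth inhibition is given as GI50. The concentration for full growth arrest is given as TGI.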"}
{"tested_on": "MDA-MB-468 breast", "experiment": "NCI-60 cell line screen, 48 h"}
{"compound": "NCCNc1nc2ccccc2c2c(=O)c3cc(F)cc(Cl)c3sc12", "GI50": "1.73 µM", "TGI": "3.44 µM"}
{"compound": "Cc1ccc2c(C(C[N+](=O)[O-])c3ccco3)c(-c3ccccc3)[nH]c2c1", "note": "(stereo not drawn)", "GI50": "7.26 µM", "TGI": "71.2 µM"}
{"compound": "CCOC(=O)C(=Cc1c(-c2ccccc2)[nH]c2ccccc12)C(=O)OCC", "GI50": "3.1 µM", "TGI": "15.4 µM"}
{"compound": "O=C(Nc1nc2ccc(F)cc2s1)c1cccnc1Nc1ccc(Cl)cc1Cl", "GI50": "0.786 µM", "TGI": "20.2 µM"}
{"compound": "Cc1cc(C(=O)Nc2cc(Nc3ncccc3-c3ncnc4nc[nH]c34)ccc2F)cc(C(C)(C)C#N)c1", "GI50": "10.3 µM", "TGI": "> 100 µM"}
{"compound": "N#CC1=C(N)Oc2c(sc3c(Br)cccc23)C1c1ccc(F)cc1", "note": "(stereo not drawn)", "GI50": "0.333 µM", "TGI": "6.41 µM"}
{"compound": "CCc1ccc(OCc2ccccc2C(=O)Nc2ccc3nc(C)cc(N)c3c2)cc1", "GI50": "1.26 µM", "TGI": "2.8 µM"}
{"compound": "N#Cc1c(-c2ccc(Cl)cc2)csc1NC(=O)Nc1cccc(C(F)(F)F)c1", "GI50": "2.18 µM", "TGI": "8.27 µM"}
{"compound": "Cc1ccc(NCCNCC(O)CO)c2c(=O)c3ccccc3sc12", "note": "(stereo not drawn)", "GI50": "1.39 µM", "TGI": "2.86 µM"}
{"compound": "Cc1cc(Nc2cc(N3CCN(C)CC3)nc(C#Cc3ccccc3)n2)n[nH]1", "GI50": "1.67 µM", "TGI": "6.53 µM"}
{"compound": "Cc1ccc(S(=O)c2ccc([N+](=O)[O-])c3nonc23)cc1", "note": "(stereo not drawn)", "GI50": "1.75 µM", "TGI": "3.65 µM"}
{"compound": "COc1ccccc1-c1nccc(COc2ccccc2C[C@@H](Oc2ncnc3sc(-c4ccc(F)cc4)c(-c4ccc(OCCN5CCN(C)CC5)c(Cl)c4C)c23)C(=O)O)n1", "GI50": "< 0.01 µM", "TGI": "0.0121 µM"}
{"compound": "CCCCCCCCCCCCCCCCCCNC(=O)[C@H]1CSC(c2ccc(F)c(OC)c2)N1", "note": "(stereo partly drawn)", "GI50": "1.84 µM", "TGI": "> 50 µM"}
{"compound": "CC(=O)c1c(Nc2ccc(F)c(F)c2F)[nH]c2c(F)cc(F)cc2c1=O", "GI50": "0.261 µM", "TGI": "0.789 µM"}
{"compound": "CCn1c(-c2nonc2N)nc2c(C#CC(C)(C)O)ncc(OC[C@@H]3CCCN3)c21", "GI50": "0.232 µM", "TGI": "7.19 µM"}
{"compound": "Oc1ccc(CSc2nnc(-c3ccc(Oc4ccccc4)cc3)n2-c2ccccc2)c2cccnc12", "GI50": "0.18 µM", "TGI": "6.81 µM"}
{"compound": "NC(=O)c1cc(-c2ccc3ncnc(N4CCc5cc(F)c(Cl)cc54)c3c2)cnc1N", "GI50": "0.397 µM", "TGI": "2.04 µM"}
{"compound": "Cc1nc2cc(Nc3nc(Nc4ccc(F)cc4)nc(-c4ccc(Cl)cc4)n3)ccc2n1Cc1ccccc1", "GI50": "4.94 µM", "TGI": "88 µM"}
{"compound": "COc1cc(/C=C2\\C(=O)Nc3ccc(Br)cc32)cc(OC)c1OC", "GI50": "3.29 µM", "TGI": "> 100 µM"}
{"compound": "CCCCCCCCCCCCNC(=O)[C@H]1CSC(c2ccsc2)N1", "note": "(stereo partly drawn)", "GI50": "0.846 µM", "TGI": "1.63 µM"}
{"compound": "COC12C=C/C(=C(/C(=O)OCc3csc(SC)n3)C(=O)CCCCCCCCC3(OC)C=C/C(=C(/C(=O)OCc4cnc(SC)s4)C(=O)CCCCCCCC1)O3)O2", "note": "(stereo not drawn)", "GI50": "3.56 µM", "TGI": "61.3 µM"}
{"compound": "Oc1cccc(-c2nc(N3CCOCC3)c3oc4ncccc4c3n2)c1", "GI50": "0.576 µM and 0.375 µM", "TGI": "2.37 µM and 2.15 µM"}
{"compound": "COc1ccc(-c2nn(-c3cccc(Cl)c3)cc2/C=C2\\C(=N)N(c3ccccc3)N=C2N)cc1", "GI50": "4.15 µM", "TGI": "45.8 µM"}
{"compound": "COc1cccc(C2CC(=O)Nc3cc4c(cc32)CCC4)c1OC", "note": "(stereo not drawn)", "GI50": "1.83 µM", "TGI": "5.45 µM"}
{"compound": "COc1ccc(-c2nn3ncccc3c2-c2ccnc(Nc3cccc(C(F)(F)F)c3)n2)cc1", "GI50": "4.62 µM", "TGI": "14.1 µM"}
{"compound": "O=C(Nc1cccc(Cl)c1)c1cc(Cl)ccc1O", "GI50": "1.75 µM", "TGI": "7.23 µM"}
{"compound": "COc1ccc(-c2nn(-c3cccc(Cl)c3)cc2-c2cc(-c3cccs3)no2)cc1", "GI50": "2.68 µM", "TGI": "12.3 µM"}
{"compound": "Cc1cc2c(-c3nc4ccccn4c3NC34CC5CC(CC(C5)C3)C4)c(O)c(O)cc2c(O)c1-c1c(C)cc2c(-c3nc4ccccn4c3NC34CC5CC(CC(C5)C3)C4)c(O)c(O)cc2c1O", "GI50": "0.143 µM", "TGI": "1.57 µM"}
{"compound": "O=C1c2cc3c(cc2-c2c1c1cc(F)c(F)cc1c(=O)n2C[C@H](O)CO)OCO3", "GI50": "0.0379 µM", "TGI": "0.206 µM"}
{"compound": "NC(=O)c1c(NC(=O)c2cccc(C(F)(F)F)c2)sc2c1CCC(=O)C2", "GI50": "0.348 µM", "TGI": "2.9 µM"}
{"compound": "O=c1c2ccccc2c(=O)c2c1sc1c(=O)c3ccc(O)cc3c(=O)c12", "GI50": "1.52 µM", "TGI": "4 µM"}
{"compound": "Fc1ccc(-c2cc(-c3cn[nH]c3-c3ccccn3)ccn2)cc1", "GI50": "> 25 µM", "TGI": "> 25 µM"}
{"compound": "CC(=O)OC1Oc2cc(C)c(C)cc2-c2oc(=O)c(-c3ccccc3)cc21", "note": "(stereo not drawn)", "GI50": "0.796 µM", "TGI": "43.9 µM"}
{"compound": "CC[C@H](C)[C@H](NC(=O)N[C@@H](C)c1ccccc1)C(=O)N(C)[C@H](C[C@@H](OC(C)=O)c1nc(C(=O)N[C@@H](Cc2ccccc2)C[C@H](C)C(=O)OC)cs1)C(C)C", "GI50": "3.6 µM", "TGI": "24.9 µM"}
{"compound": "CC(=O)Nc1ccc2c(c1)CN1C(=O)c3ccccc3C1=N2", "GI50": "> 100 µM", "TGI": "> 100 µM"}
{"compound": "O=C1c2c(O)ccc(O)c2C(=O)c2c(NCCNCCO)ccc(NCCNCCO)c21", "GI50": "0.0835 µM", "TGI": "0.346 µM"}
{"compound": "COc1ccc2nc3cc(Cl)ccc3c(Nc3ccc(O)c(CN4CCCC4)c3)c2c1", "GI50": "1.85 µM", "TGI": "3.65 µM"}
{"compound": "COc1ccc(-c2conc2-c2ccccc2)cc1", "GI50": "0.225 µM", "TGI": "> 100 µM"}
{"compound": "C#CCn1cc(C=C2C(=O)NC(=S)NC2=O)c2cc(Cl)ccc21", "GI50": "2.06 µM", "TGI": "5.08 µM"}
{"compound": "COc1ccc(CNC(=O)c2ccc(-c3cc(-c4nnc(C)o4)ccc3C)cc2)cc1", "GI50": "5.14 µM", "TGI": "21.4 µM"}
{"compound": "Cc1cc([C@H](C)Nc2nccc(N3C(=O)OC[C@@H]3[C@H](C)F)n2)ncc1-c1ccnc(C(F)(F)F)c1", "GI50": "9.5 µM", "TGI": "79.6 µM"}
{"compound": "CN1CCN(CCCOc2ccc3ncnc(Nc4ccc(Oc5cccc(F)c5)c(Cl)c4)c3c2)CC1", "GI50": "1.06 µM", "TGI": "2.53 µM"}
{"compound": "NC1(C(=O)O)CSSC1", "GI50": "2.1 µM", "TGI": "7.89 µM"}
{"compound": "CN(C)CCCNc1c2ccccc2nc2c1oc1ccc(Cl)cc12", "GI50": "2.76 µM", "TGI": "11 µM"}
